Assay results taken from paper PMC5318439, “The Novel Toll-Like Receptor 2 Agonist SUP3 Enhances Antigen Presentation and T Cell Activation by Dendritic Cells” (Frontiers in Immunology, 2017).
Where a SMILES comes first, the peptide text is derived from it. The star is where a group is joined. X1 = CCCCCCCCCCCCCCNC(=O)OC[C@H](C*)OC(=O)NCCCCCCCCCCCCCC; Palmitoyl = CCCCCCCCCCCCCCCC(=O)*

How the values were obtained:
[1] = target: TLR2 (Homo sapiens, UniProt O60603); test: Affinity of TLR2 agonist for TLR2; type: binding; conditions: compared with Pam3; Figure S3A
Text: (§1) Pam3 is a lipopeptide and serves as a TLR2 agonist through binding to TLR2/TLR1 heterodimer. Although Pam3 is widely used as a TLR2 agonist, some intrinsic problems remain in detailed mechanism studies and drug development. The two ester groups of Pam3 can be easily hydrolyzed in plasma, and the hydroxyl group in serine could be readily oxidized in physiological conditions (Figure S1A in Supplementary Material). […] In addition, we displaced serine residue in Pam3 with glycine residue to eliminate this chiral center (Figures S1A,B in Supplementary Material). Since the third lysine residue in Pam3 is crucial for H bonding, we kept three lysine residues in the new molecule and removed the forth lysine residue to further reduce the molecular weight of the new TLR2 agonist, (2S,5S,8S,14R,18R)-2,5,8-tris(4-aminobutyl)-4,7,10,13,21-pentaoxo-14-palmitamido-18-((tetradecylcarbamoyl)oxy)-20-oxa-16-thia-3,6,9,12,22-pentaazahexatriacontan-1-oic acid. It is termed SUP3 (Figure 1A; Figures S1A,B in Supplementary Material). Chemical characterization of SUP3 by ^1H nuclear magnetic resonance and electrospray ionization mass spectrum analysis further confirm the structure (Figures S2A,B in Supplementary Material).

[2] = Plasma stability; type: in vitro ADME; conditions: compared with Pam3, Figure S3B
Text: as §1

[3] = test system: OVA-expressing B16 melanoma cells (B16-OVA); test: B16-OVA melanoma lung metastasis tumor model after immunization; type: in vivo, mice; conditions: immunized OCS + 2 nmol per mouse for 30 days, B16-OVA 5 × 10^5 cells i.v., 16 days after challenge; vs OCS alone or OCS with Pam3
Text: Tumor model was applied as previously described with some modifications ([42]). Briefly, mice were immunized by OCS alone, OCS with Pam3 (2 nmol per mouse), or OCS with SUP3 (2 nmol per mouse) for 30 days. Then mice were i.v. injected with OVA-expressing B16 melanoma cells (B16-OVA) (5 × 10^5 cells per mouse). After 16 days, the numbers of metastatic tumors in lung were counted.
Figure 2 SUP3 induced more vigorous cytotoxic T lymphocytes (CTLs) responses than Pam3CSK4 without excessive production of inflammatory cytokines in vivo. […] The percentages of pentamer positive cells (CD19^− CD3^+ CD8^+ SIINFEKL/H-2Kb-Pentamer^+) in spleens, i.e., the OVA-specific CD8^+ T cells, were determined by flow cytometry (A) and the statistic calculation is presented in (B). […] (C,D) Mice were immunized as in (A) for 30 days, then inoculated with OVA-expressing B16 melanoma cells (B16-OVA) (5 × 10^5 cells per mouse) by i.v. injection and analyzed for metastatic tumor formation in the lung 16 days after inoculation. […] (E) Mice were i.v. injected with SUP3 (2 nmol per mouse), Pam3 (2 nmol per mouse), or lipopolysaccharide (LPS) (1 µg per mouse) for 1 h, the serum was collected, and the levels of different cytokines were determined by ELISA. “n.d.” indicates “not detected.” *p < 0.05, **p < 0.01. […]

TLR2, sequence (O60603 21-784, species assumed): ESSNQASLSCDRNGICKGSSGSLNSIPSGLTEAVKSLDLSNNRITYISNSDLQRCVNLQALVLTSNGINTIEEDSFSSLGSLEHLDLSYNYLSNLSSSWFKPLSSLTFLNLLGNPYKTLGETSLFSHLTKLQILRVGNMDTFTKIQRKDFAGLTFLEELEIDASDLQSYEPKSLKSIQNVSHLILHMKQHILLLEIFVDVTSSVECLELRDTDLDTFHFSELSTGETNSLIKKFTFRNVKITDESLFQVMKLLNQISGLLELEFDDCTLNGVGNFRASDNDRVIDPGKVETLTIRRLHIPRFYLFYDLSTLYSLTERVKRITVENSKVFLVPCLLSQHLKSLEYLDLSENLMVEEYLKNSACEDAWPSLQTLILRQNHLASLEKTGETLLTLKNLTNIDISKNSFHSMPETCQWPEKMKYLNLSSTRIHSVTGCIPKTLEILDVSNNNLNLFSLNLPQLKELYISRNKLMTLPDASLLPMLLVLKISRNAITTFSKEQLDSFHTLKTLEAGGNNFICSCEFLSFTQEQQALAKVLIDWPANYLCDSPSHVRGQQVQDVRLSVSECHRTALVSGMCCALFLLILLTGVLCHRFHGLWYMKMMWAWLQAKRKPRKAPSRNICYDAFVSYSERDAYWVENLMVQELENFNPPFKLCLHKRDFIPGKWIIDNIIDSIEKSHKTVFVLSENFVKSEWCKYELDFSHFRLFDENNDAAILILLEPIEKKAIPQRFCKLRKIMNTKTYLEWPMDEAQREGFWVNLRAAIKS

For `CCCCCCCCCCCCCCCC(=O)N[C@@H](CSC[C@@H](COC(=O)NCCCCCCCCCCCCCC)OC(=O)NCCCCCCCCCCCCCC)C(=O)NCC(=O)N[C@@H](CCCCN)C(=O)N[C@@H](CCCCN)C(=O)N[C@@H](CCCCN)C(=O)O` [SUP3, (2S,5S,8S,14R,18R)-2,5,8-tris(4-aminobutyl)-4,7,10,13,21-pentaoxo-14-palmitamido-18-((tetradecylcarbamoyl)oxy)-20-oxa-16-thia-3,6,9,12,22-pentaazahexatriacontan-1-oic acid] (Palmitoyl-C(X1)GKKK-OH), the affinity [1] was “comparable with Pam3”, the plasma stability [2] was “much higher than Pam3” and the “number of metastatic tumors in the lungs” value [3] was “markedly reduced number of tumors in the lungs”.
